# Test results published in patent US20170258871A1, “COMBINED USE OF A TRKA INHIBITOR AND AN EPHA2 INHIBITOR FOR USING IN THE TREATMENT OF SOLID CANCERS, AND METHOD FOR THE PROGNOSIS OF SURVIVAL OF A PATIENT WHO HAS A SOLID CANCER” (UNIVERSITE DES SCIENCES ET TECHNOLOGIES DE LILLE, priority 2014, published 2017).
# Legend:
# [1] = tested on: MDA-MB-231 HA-TrkA tumours; assay: Xenograft of MDA-MB-231 HA-TrkA in SCID mice, tumour volume (Experiment 1); assay type: in vivo; settings: 3 injections every 3 days from day 14; CEP-701 10 mg/kg intraperitoneal, siEphA2 7.5 microg/mouse close to the tumour
# Protocol: FIG. 9: A study of the inhibition of TrkA and EphA2 on tumour development in vivo. The tumours were developed without any intervention for 14 days and then subjected to 3 injections (every 3 days, black arrows) of solvent (control), CEP-701 (10 mg/kg), siEphA2 (7.5 microg/mouse) or CEP-701 (10 mg/kg) and siEphA2 (7.5 microg/mouse). The experiments were stopped 31 days after the first injection of the treatment for ethical considerations after the death of the control mice. A) The tumour volumes were evaluated by measuring the length (;) and the width (w) and then calculating the volume using the formula π/6×l×W×(l+w)/2; the Mann and Whitney test was carried out between the control group and CEP-701 (a), between the control groups and siEphA2 (b), between the control groups and CEP-701+siEphA2 (c), and between the groups siEphA2 and CEP-701+siEphA2 (d)*, P<0.05; **, P<0.01; ns: not significant. B) Study of the inhibition of the expression of receptors by siRNA on the overall survival of SCID mice. […] The tumour volumes were evaluated by measuring the length (l) and width (w) and then calculating the volume using the formula π/6×l×W×(l+w)/2. […] Significance was measured using the log-rank test (P=0.0022). […]
# Experiment 1: the mice used were six-week old SCID females. […] The tumour volume was measured according to the following formula: π/6×length×width×(width+length)/2. […]
# Src = assay: Western blot of Src phosphorylation in MDA-MB-231 cells; assay type: cell-based
# Protocol: (§1) FIG. 8: A study of the role of TrkA and EphA2 in the activation of proteins Akt and Src. Cells MDA-MB-231 were respectively treated with a TrkA inhibitor (K252a), an anti-EphA2 siRNA (siEphA2), an inhibitor of PI3-K (LY294002) and an inhibitor of Src (SKI-1).
# (§2) A and D. Cells MDA-MB-231 HA-TrkA were treated with proNGF N.C. […] The phosphorylation of Akt and Src was determined by using phospho-specific antibodies. The equal charge was verified using Akt and Src antibodies.
# (§3) C and F. The phosphorylation of Akt and Src was determined in the total lysates coming from cells MDA-MB-231 transfected with siEphA2 and treated for 30 minutes with proNGF N.C. (C) or NGF (F).
# (§4) After treatment, the cells were lysed (lysis buffer: 40 mM HEPES pH 7.5; 1 mM EDTA pH 8.0; 120 mM NaCl; 10 mM NaPPi; 50 mM NaF; 1.5 mM Na3VO4; 1% Triton X 100; 0.1% SDS; 1 mM PMSF; 10% glycerol and 1/100 th of protease inhibitor cocktail (Sigma) (20 min; 4° C.)). The lysates were recovered and clarified by centrifugation (12,000 g; 10 min; 4° C.). The supernatant was then stored at −80° C. until use. The protein extracts were diluted to 2 μg·μL−1 in a Laemmli 1× buffer (7 min; 100° C.) then deposited and separated on SDS-PAGE (concentration gel 3.6% acrylamide and separation gel 7.5% to 10% acrylamide (thickness 1 mm); 180 V; 10 min then 200 V constant; until output of the migration front). The proteins separated by SDS-PAGE were transferred according to the semi-dry transfer method (buffer: 48 mM Tris base, 39 mM glycine, 1.64 mM SDS, 20% methanol (v/v); 14 V; 15 min per gel) or liquid (buffer: 25 mM Tris base and 192 mM glycine; 15% methanol (v/v); 100 V; 30 min) on nitrocellulose membranes (0.45 μm; Whatman; Germany) or PVDF (0.45 μm; Immobilon P; Millipore; France). The PVDF membrane was “activated” beforehand (methanol; 10 min; 20° C.). The membranes were then saturated (TBS-T; 5% BSA; 1 h; 20° C.) then incubated (16 h; 4° C.) with the chosen primary antibody. […] The membranes were placed in an image analyser (LAS 4000; Fuji) connected to a computer which allowed image generation (software Image Reader LAS 4000).
# (§5) The antibody against EphA2 was sc-924 (Santa Cruz), the antibody against sortilin was BD Bioscience 612101, the antibody against TrkA was sc 14024 (Santa Cruz), the antibody against HA was MMS-101R (Covance), the antibody against Akt was Cell Signaling 4691, the antibody against phospho-Akt (Ser 473) was Cell Signaling 9271, the antibody against Src was Cell Signaling 2109 (WB), the antibody against PhosphoSrc (Tyr416) was Cell Signaling 2105 and the antibody against actin was Sigma A2066.
# (§6) Proteins Akt and Src were both involved in the pro-invasive effect of proNGF. In order to identify the role of TrkA and EphA2 in the activation of proteins Akt and Src, cells MDA-MB-231 were treated respectively with a TrkA inhibitor (K252a), an anti-EphA2 siRNA (siEphA2) the sequence of which is presented in table 1, a PI3-K inhibitor (LY294002) (the activation of Akt in effect underlies that of PI3-K) and an inhibitor of Src (SKI-1).
# Akt = assay: Western blot of Akt phosphorylation in MDA-MB-231 cells; assay type: cell-based; settings: for effect on Akt activation induced by proNGF: proNGF N.C. 30 min, 10 nM K252a, 15 μM LY294002, 50 nM SKI-1 or siEphA2
# Protocol: as §1, §2, §3, §4, §5, §6
# [2] = tested on: tumours xenografted with cells MDA-MB-231 overexpressing TrkA; settings: previously demonstrated, ref (34); cited from earlier work
# [3] = NGF 30 min, 10 nM K252a or siEphA2
Structure (SMILES),tumour volume / growth of xenografted tumours vs control [1],effect on Src phosphorylation induced by NGF (Src; [3]),effect on Akt phosphorylation induced by NGF (Akt; [3]),effect on Akt activation induced by proNGF (Akt),growth of xenografted tumours [2],"effect on Src activation induced by proNGF (Src; proNGF N.C. 30 min, 10 nM K252a, 15 μM LY294002, 50 nM SKI-1 or siEphA2)"
"C[C@]12O[C@H](C[C@]1(O)CO)n1c3ccccc3c3c4c(c5c6ccccc6n2c5c31)CNC4=O [CEP-701, reference compound]","slightly, but not significantly, reduced",–,–,–,–,–
"COC(=O)[C@@]1(O)C[C@H]2O[C@]1(C)n1c3ccccc3c3c4c(c5c6ccccc6n2c5c31)C(=O)NC4 [K252a, reference compound]",–,inhibited this activation,inhibited this activation,abolished the activation of Akt,reduces the growth of tumours,–
"COc1cc2ncnc(Nc3ccc(Oc4ccccc4)cc3)c2cc1OC [SKI-1, reference compound]",–,–,–,does not affect the phosphorylation of Akt,–,inhibition of Src
